Measured values reported in PubChem BioAssay AID1963963 (Molecular Pharmacology Branch, DTP, NCI, 2024).

Tested on: 958667-338-R-J2-PDC tumor spheroids viability
Assay: Anticancer human tumor 958667-338-R-J2-PDC patient-derived colon adenocarcinoma cell line growth inhibition [PI3K]
Conditions: spheroids with HUVEC and MSC; for viability, T/C: stronger effect = lower value
How it was run: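 Complex 3D spheroids (cancer cells + endothelial HUVEC + mesenchymal stem cells); drug pairs of targeted agent x inavolisib/alpelisib/duvelisib/copanlisib; half-log series from ~Cmax, max 10 microM if Cmax unknown; endpoint viability.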

[1] = curve of first compound, second compound 0.0316 µM
[2] = curve of first compound, second compound 0.1 µM
[3] = curve of first compound, second compound 0.316 µM
[4] = curve of first compound, second compound 1 µM
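Further: spheroids exposed to compounds for seven days before readout.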

Question: For `CC(=O)c1c(C)c2cnc(Nc3ccc(N4CCNCC4)cn3)nc2n(C2CCCC2)c1=O` + CC(Nc1ccc2c(c1)OCCn1cc(N3C(=O)OCC3C(F)F)nc1-2)C(N)=O, which IC50 (curve of first compound, second compound 0.00316 µM) is on record?
Answer: > 100 nM

Question: And the IC50 (curve of first compound, second compound 0.01 µM)?
Answer: > 100 nM

Question: And the IC50 [1]?
Answer: > 100 nM

Question: And the IC50 [2]?
Answer: > 100 nM

Question: And the IC50 [3]?
Answer: > 100 nM

Question: What about the IC50 [4] of the same molecule?
Answer: 18 nM

Question: What about the viability, T/C (second compound 0.00316 µM, first compound 0.000316 µM) of the same molecule?
Answer: 96.6%

Question: What about the viability, T/C (second compound 0.00316 µM, first compound 0.001 µM) of the same molecule?
Answer: 107%

Question: What about the viability, T/C (second compound 0.00316 µM, first compound 0.00316 µM) of the same molecule?
Answer: 101%

Question: What about the viability, T/C (second compound 0.00316 µM, first compound 0.01 µM) of the same molecule?
Answer: 104%

Question: What about the viability, T/C (second compound 0.00316 µM, first compound 0.0316 µM) of the same molecule?
Answer: 99.1%

Question: What about the viability, T/C (second compound 0.00316 µM, first compound 0.1 µM) of the same molecule?
Answer: 84.3%

Question: What about the viability, T/C (second compound 0.01 µM, first compound 0.000316 µM) of the same molecule?
Answer: 107%

Question: What about the viability, T/C (second compound 0.01 µM, first compound 0.001 µM) of the same molecule?
Answer: 95.7%

Question: And the viability, T/C (second compound 0.01 µM, first compound 0.00316 µM)?
Answer: 105%

Question: What about the viability, T/C (second compound 0.01 µM, first compound 0.01 µM) of the same molecule?
Answer: 102%

Question: What about the viability, T/C (second compound 0.01 µM, first compound 0.0316 µM) of the same molecule?
Answer: 107%

Question: What about the viability, T/C (second compound 0.01 µM, first compound 0.1 µM) of the same molecule?
Answer: 83.8%

Question: What about the viability, T/C (second compound 0.0316 µM, first compound 0.000316 µM) of the same molecule?
Answer: 97.3%

Question: And the viability, T/C (second compound 0.0316 µM, first compound 0.001 µM)?
Answer: 73.8%

Question: And the viability, T/C (second compound 0.0316 µM, first compound 0.00316 µM)?
Answer: 78.3%

Question: And the viability, T/C (second compound 0.0316 µM, first compound 0.01 µM)?
Answer: 90.2%

Question: And the viability, T/C (second compound 0.0316 µM, first compound 0.0316 µM)?
Answer: 98%

Question: What about the viability, T/C (second compound 0.0316 µM, first compound 0.1 µM) of the same molecule?
Answer: 85.3%

Question: And the viability, T/C (second compound 0.1 µM, first compound 0.000316 µM)?
Answer: 78.2%

Question: What about the viability, T/C (second compound 0.1 µM, first compound 0.001 µM) of the same molecule?
Answer: 87.4%

Question: And the viability, T/C (second compound 0.1 µM, first compound 0.00316 µM)?
Answer: 89.2%

Question: What about the viability, T/C (second compound 0.1 µM, first compound 0.01 µM) of the same molecule?
Answer: 75.2%

Question: What about the viability, T/C (second compound 0.1 µM, first compound 0.0316 µM) of the same molecule?
Answer: 92.3%

Question: And the viability, T/C (second compound 0.1 µM, first compound 0.1 µM)?
Answer: 58.2%

Question: What about the viability, T/C (second compound 0.316 µM, first compound 0.000316 µM) of the same molecule?
Answer: 61.9%

Question: And the viability, T/C (second compound 0.316 µM, first compound 0.001 µM)?
Answer: 73%

Question: What about the viability, T/C (second compound 0.316 µM, first compound 0.00316 µM) of the same molecule?
Answer: 62.8%

Question: And the viability, T/C (second compound 0.316 µM, first compound 0.01 µM)?
Answer: 65.9%

Question: What about the viability, T/C (second compound 0.316 µM, first compound 0.0316 µM) of the same molecule?
Answer: 56.9%

Question: And the viability, T/C (second compound 0.316 µM, first compound 0.1 µM)?
Answer: 67.4%

Question: And the viability, T/C (second compound 1 µM, first compound 0.000316 µM)?
Answer: 64.5%

Question: And the viability, T/C (second compound 1 µM, first compound 0.001 µM)?
Answer: 62.8%

Question: And the viability, T/C (second compound 1 µM, first compound 0.00316 µM)?
Answer: 47.5%

Question: And the viability, T/C (second compound 1 µM, first compound 0.01 µM)?
Answer: 53.2%

Question: And the viability, T/C (second compound 1 µM, first compound 0.0316 µM)?
Answer: 56.6%

Question: What about the viability, T/C (second compound 1 µM, first compound 0.1 µM) of the same molecule?
Answer: 37%

Question: What does the source list for `Cn1ncnc1[C@H]1c2n[nH]c(=O)c3cc(F)cc(c23)N[C@@H]1c1ccc(F)cc1`?
Answer: viability, T/C (compound 0.000316 µM): 115% [middle of 4 runs]; viability, T/C (compound 0.001 µM): 110% [middle of 4 runs]; viability, T/C (compound 0.00316 µM): 97.5% [middle of 4 runs]; viability, T/C (compound 0.0316 µM): 103% [middle of 4 runs]; viability, T/C (compound 0.1 µM): 99.1% [middle of 4 runs]; IC50 (curve of compound): > 100 nM

Question: `Cn1cnc2c(F)c(Nc3ccc(Br)cc3Cl)c(C(=O)NOCCO)cc21` + CC(Nc1ncnc2nc[nH]c12)c1cc2cccc(Cl)c2c(=O)n1-c1ccccc1 was tested. Which IC50 [1] did it give?
Answer: 365 nM

Question: And the IC50 [2]?
Answer: 261 nM

Question: And the IC50 [3]?
Answer: 363 nM

Question: And the IC50 [4]?
Answer: 280 nM

Question: What about the IC50 (curve of first compound, second compound 3.16 µM) of the same molecule?
Answer: 210 nM

Question: What about the IC50 (curve of first compound, second compound 10 µM) of the same molecule?
Answer: 90.4 nM

Question: And the viability, T/C (second compound 0.0316 µM, first compound 0.00949 µM)?
Answer: 89.8%

Question: And the viability, T/C (second compound 0.0316 µM, first compound 0.03 µM)?
Answer: 80.5%

Question: And the viability, T/C (second compound 0.0316 µM, first compound 0.0949 µM)?
Answer: 71%

Question: And the viability, T/C (second compound 0.0316 µM, first compound 0.3 µM)?
Answer: 52.2%

Question: What about the viability, T/C (second compound 0.0316 µM, first compound 0.949 µM) of the same molecule?
Answer: 35.5%

Question: And the viability, T/C (second compound 0.0316 µM, first compound 3 µM)?
Answer: 20%

Question: And the viability, T/C (second compound 0.1 µM, first compound 0.00949 µM)?
Answer: 84.3%

Question: What about the viability, T/C (second compound 0.1 µM, first compound 0.03 µM) of the same molecule?
Answer: 80.6%

Question: What about the viability, T/C (second compound 0.1 µM, first compound 0.0949 µM) of the same molecule?
Answer: 62.6%

Question: What about the viability, T/C (second compound 0.1 µM, first compound 0.3 µM) of the same molecule?
Answer: 49.3%

Question: What about the viability, T/C (second compound 0.1 µM, first compound 0.949 µM) of the same molecule?
Answer: 31.3%

Question: What about the viability, T/C (second compound 0.1 µM, first compound 3 µM) of the same molecule?
Answer: 20.3%

Question: What about the viability, T/C (second compound 0.316 µM, first compound 0.00949 µM) of the same molecule?
Answer: 80.7%

Question: And the viability, T/C (second compound 0.316 µM, first compound 0.03 µM)?
Answer: 97.4%

Question: And the viability, T/C (second compound 0.316 µM, first compound 0.0949 µM)?
Answer: 74.8%

Question: What about the viability, T/C (second compound 0.316 µM, first compound 0.3 µM) of the same molecule?
Answer: 53.3%

Question: And the viability, T/C (second compound 0.316 µM, first compound 0.949 µM)?
Answer: 32.2%

Question: What about the viability, T/C (second compound 0.316 µM, first compound 3 µM) of the same molecule?
Answer: 19.8%

Question: And the viability, T/C (second compound 1 µM, first compound 0.00949 µM)?
Answer: 73.3%

Question: What about the viability, T/C (second compound 1 µM, first compound 0.03 µM) of the same molecule?
Answer: 83.5%

Question: And the viability, T/C (second compound 1 µM, first compound 0.0949 µM)?
Answer: 59.7%

Question: What about the viability, T/C (second compound 1 µM, first compound 0.3 µM) of the same molecule?
Answer: 48.2%

Question: What about the viability, T/C (second compound 1 µM, first compound 0.949 µM) of the same molecule?
Answer: 33.9%

Question: What about the viability, T/C (second compound 1 µM, first compound 3 µM) of the same molecule?
Answer: 17%

Question: What about the viability, T/C (second compound 3.16 µM, first compound 0.00949 µM) of the same molecule?
Answer: 85.3%

Question: And the viability, T/C (second compound 3.16 µM, first compound 0.03 µM)?
Answer: 81.6%

Question: What about the viability, T/C (second compound 3.16 µM, first compound 0.0949 µM) of the same molecule?
Answer: 57%

Question: What about the viability, T/C (second compound 3.16 µM, first compound 0.3 µM) of the same molecule?
Answer: 44.3%

Question: And the viability, T/C (second compound 3.16 µM, first compound 0.949 µM)?
Answer: 31.3%

Question: What about the viability, T/C (second compound 3.16 µM, first compound 3 µM) of the same molecule?
Answer: 13.3%

Question: And the viability, T/C (second compound 10 µM, first compound 0.00949 µM)?
Answer: 78.3%

Question: What about the viability, T/C (second compound 10 µM, first compound 0.03 µM) of the same molecule?
Answer: 62.9%

Question: And the viability, T/C (second compound 10 µM, first compound 0.0949 µM)?
Answer: 45.2%

Question: And the viability, T/C (second compound 10 µM, first compound 0.3 µM)?
Answer: 41.7%

Question: What about the viability, T/C (second compound 10 µM, first compound 0.949 µM) of the same molecule?
Answer: 20.7%

Question: And the viability, T/C (second compound 10 µM, first compound 3 µM)?
Answer: 10.4%
